Data reported in patent US20040248967A1, “Promoter for production of nitric oxide or nitric oxide synthase, and cosmetic or pharmaceutical composition comprising the same” (AJINOMOTO CO., INC., priority 2001, published 2004).

Tests used:
Format in all cases: cell-based
Angioendothelial cells = test: Nitric oxide production in cultured angioendothelial cells (Griess method); settings: for Formed amount of nitric oxide: 24 hours after addition, L-Arg, L-PCA, GA concentrations (mM) in the medium differ per Example as in Table 1, medium without L-arginine
Method: Angioendothelial cells were cultured using a DMEM medium (Dulbecco-modified MEM) containing 10% fetal bovine serum (FBS). However, phenol red and L-arginine were not added to the medium. The cells were cultured in the medium for 24 hours. After 24 hours of the culture, L-2-pyrrolidone-5-carboxylic acid and L-arginine were added to the medium, the amounts to be added being different for each Example and Comparative Example, as shown in Table 1 below. The culture was further continued for 24 hours.
Thereafter, the produced amount of the nitric oxide was determined by measuring the nitrogen dioxide in the culture supernatant. Nitrogen dioxide was measured by Griess method. The number of the cells in the culture liquid were measured and the formed amount of the nitric oxide per 10^3 cells was expressed in terms of nmol. By the way, as negative controls, the example wherein neither arginine nor pyrrolidonecarboxylic acid was contained (Comparative Example 1) and the example wherein arginine was contained singly (Comparative Example 2) were used. Moreover, as a positive control, the example wherein arginine and glycolic acid were contained (Comparative Example 3) was used.

cNOS = test: RT-PCR of cNOS messenger RNA in angioendothelial cells; settings: 24 hours; for Expressed amount of cNOS (Relative ratio): messenger RNA by RT-PCR
Method: (§1) Angioendothelial cells were cultured using a DMEM medium (Dulbecco-modified MEM) containing 10% fetal bovine serum (FBS). The cells were cultured in the medium for 24 hours. After 24 hours of the culture, the cells were further cultured in the medium to which L-pyrrolidonecarboxylic acid was added so as to achieve a predetermined concentration (See Table 3 given later) for 24 hours, and then the RNA was extracted. For reverse transcription of the RNA, a kit for reverse transcription (manufactured by GIBCO) was used to prepare the cDNA. The cDNA was then subjected to PCR (RT-PCR). Forty cycles of the PCR were carried out under the conditions of denaturing at 95° C. for 30 seconds, annealing at 59° C. for 60 seconds, and extension at 73° C. for 90 seconds.
(§2) As has been described above, using RT-PCR, the expressed amounts of the messenger RNA's of cNOS and iNOS were determined. In this experiment, cNOS was detected, but iNOS was not detected. […] In the table, L-PCA means L-pyrrolidonecarboxylic acid.

iNOS = test: RT-PCR of iNOS messenger RNA in angioendothelial cells; settings: L-PCA 1.0-10.0 mM, 24 hours, RT-PCR 40 cycles
Method: as §1, §2

Which “Formed amount of nitric oxide” value (Angioendothelial cells) does the source give for O=C1CC[C@@H](C(=O)O)N1 [Example 1, L-2-pyrrolidone-5-carboxylic acid] here?
The value was 1.4 nmol/10^3 cells.

Which “Formed amount of nitric oxide” value (Angioendothelial cells) does the source give for N=C(N)NCCC[C@H](N)C(=O)O [Comparative Example 2, L-arginine, reference compound] here?
The value was 1.9 nmol/10^3 cells.

How did the “amount of cNOS depending on the amount of pyrrolidonecarboxylic acid added (in words)” value (cNOS; 1.0-10.0 mM, RT-PCR) turn out when O=C1CC[C@@H](C(=O)O)N1 [L-PCA, L-2-pyrrolidone-5-carboxylic acid] was run?
Its value is “tended to increase”.

And the “Expressed amount of cNOS (Relative ratio)” value (cNOS; L-PCA added 1.0 mM)?
The value was 1.00.

What about the “Expressed amount of cNOS (Relative ratio)” value (cNOS; L-PCA added 2.5 mM) of the same molecule?
The value was 1.25.

What about the “Expressed amount of cNOS (Relative ratio)” value (cNOS; L-PCA added 5.0 mM) of the same molecule?
The value was 1.40.

What about the “Expressed amount of cNOS (Relative ratio)” value (cNOS; L-PCA added 10.0 mM) of the same molecule?
Its value is 1.75.

What about the “promoting effect on the production of nitric oxide (in words)” value (Angioendothelial cells; angioendothelial cells, 24 hours, comparison at 10 mM of added compound) of the same molecule?
The value was “exhibited a promoting effect on the production of nitric oxide”.

And the “expressed amount of messenger RNA of iNOS (detection)” value (iNOS)?
The value was “not detected”.
